Test results: patent US9561228B2 (Celgene Avilomics Research, Inc., priority 2013, dated 2017)

Tests used:
[1] = tested on: HT-29 cells (colorectal adenocarcinoma); experiment: Inhibition of cancer cell proliferation, HT-29 (CellTiterGlo, 72 hours); assay type: cell-based; settings: Homo sapiens
Method in brief: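 Proliferation over 72 h at 37° C was read by CellTiterGlo luminescence, translated to cell counts with a cell-density standard curve (390–50,000 cells). Compound added as 3-fold dilutions from a 5,000 nM two-fold stock to 3000 seeded HT-29 cells; GI50 from percent inhibition relative to untreated wells.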

[2] = tested on: HCT116 cells (colorectal carcinoma); experiment: Inhibition of cancer cell proliferation, HCT116 (CellTiterGlo, 72 hours); assay type: cell-based; settings: Homo sapiens, HCT-116
Experimental: Measurement of Inhibition of Cancer Cell Proliferation (HCT116/Colorectal Carcinoma)
The following protocol used a HCT116 cell line, which cell line is a model for colorectal carcinoma. HCT116 cells were split and 3000 cells in 100 μl of growth medium were added per well of a flat-bottom 96-well plate. A two-fold test compound solution in serum-free RPM1640 was made, starting at 5,000 nM. Then, 3-fold serial dilutions were made across the plate from well 1 to well 11. Well 12, the last well in a row on the plate, was left as untreated control. 100 μl compound solutions were then transferred to the wells, so the total volume of media was 200 μl per well. Plates were returned to a 37° C. incubator, and the cells were cultured for 72 hours. To measure cell proliferation after 72 hours, media was discarded from the plates, 50 μl/well of fresh medium was added, and 50 μl CellTiterGlo solution was added (Promega Cat#G7573). The plate was covered with a dark lid and incubated for 10 min. A white sealing tape was applied to the bottom of the plate, and the plate was read in a luminescence plate reader. […] 50 μl CellTiterGlo was added per well, and the plate was read in a luminescence plate reader after 10 min. The reading was plotted vs. cell number to generate a standard curve and the equation of the curve fit. The compound-treated sample luminescence readings were converted to cell numbers using the curve-fit equation. The percent of inhibition, using untreated control as 100% growth, was then calculated. GI50 was then calculated by GraphPad Prism.

[3] = tested on: A375 cells (malignant melanoma); experiment: Inhibition of cancer cell proliferation, A375 (CellTiterGlo, 72 hours); assay type: cell-based; settings: Homo sapiens, A-375
Method in brief: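 GI50 derived from % growth inhibition relative to untreated wells, after luminescence (CellTiterGlo, 10 min) was converted to cell counts using a standard curve. Compound given as 3-fold dilutions from a 2× 5,000 nM stock in serum-free DMEM; 3000 A375 cells/well, 72 h culture at 37 °C.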

[4] = tested on: ERK1/2 phosphorylation of p90RSK in HT29 cells; experiment: pRSK MSD Assay in HT29 cells; assay type: cell-based; settings: Homo sapiens, HT-29, read-out: ERK1/ERK2 PRSK MSD HT29 EC50
Method in brief: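 Phospho-RSK level, read by electrochemiluminescence on RSK-antibody-coated MSD plates with a phospho-RSK/Sulfo-tag detection pair, reports cellular ERK1/2 activity. HT29 cells, kept overnight in 0.1% FBS medium, were exposed to compound for 120 min at 37° C before lysis.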

MEK1 activated ERK1 = biological target: T1, MEK1 activated ERK1 (Homo sapiens, UniProt P27361); experiment: Omnia continuous-read kinase assay for potency against MEK1 activated ERK1; assay type: biochemical; settings: MEK1 activated ERK1, ATP at KM; read-out: ERK1 Omnia WT ATP KM IC50
T1 construct: purchased Millipore (Billerica, Mass.) 14-439-K
Method in brief: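 Apparent IC50 came from initial reaction slopes (RFU vs time) plotted against log inhibitor with a variable-slope fit. Reactions were started with ERK1 (4 nM final) added to 50 μM ATP, roughly at its appKM, and 10 μM Sox-conjugated ST17 peptide in 20 mM Tris pH 7.5, 5 mM MgCl2. Fluorescence was monitored every 71 seconds.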

ERK1/ERK2 = experiment: Measurement of Erk occupancy with biotinylated covalent probe I-299 (HT-29); assay type: cell-based; settings: HT-29 cells
Experimental: Measurement of Erk Occupancy with Biotinylated Covalent Probe
This experiment measured occupancy of the ERK1/ERK2 target by compounds according to the invention. This experiment was conducted using the Mesoscale Discovery test kit (Cat. # N45107B). One day before the assay, cells were split and added at 50,000 cells per well to a flat-bottom 96 well plate in 200 μl of growth medium. The next day, the medium was discarded, 100 μl medium containing test compound was added, and the plate was incubated at 37° C. for 120 minutes. The plate was rinsed once with PBS, and 50 μl lysis buffer with test compound was added. The plate was incubated at 4° C. for 30 min, and 30 μl of lysate was transferred to a plate to capture total and phosphor-Erk. Biotinylated probe 1-299 was diluted in lysis buffer and added to each well to a final concentration of 0.2 μM. The plate was incubated for 2 hr under constant shaking at room temperature. The plate was washed 3 times with MSD wash buffer. To detect the biotinylated probe bonding, tagged streptavidin was added (Mesoscale Discovery, Cat. # R32AD-1) at 1 μg/ml, 25 μl/well, followed by a 60 min incubation under shaking. The plate was washed 3 times, 150 μl MSD Read Buffer (Mesoscale Discovery, Cat. R61TX) was added and the plate was read in a plate reader manufactured by MSD. Percent occupancy by test compound at Erk was calculated by comparing the chemiluminescence readings from treated cells as compared to the chemiluminescence readings in untreated controls (which are defined as 100% probe bonding or 0% test compound occupancy). The amount of covalent probe signal divided by the amount of ERK signal for samples with no test compound treatment represents the maximum probe signal (MPS). In samples treated with test compound prior to covalent probe, the ratio of probe signal to ERK signal (the test probe signal, TPS) was reduced by the degree of target occupancy by the test compound which blocks covalent probe binding. The difference between the MPS and the TPS, divided by the MPS gave the target occupancy by the test compound. This ratio was then expressed as a percent occupancy. Results from this assay are provided in Table A below under the column “Occupancy EC50 (nM) HT-29.”

Erk1 = biological target: T2, Erk1 (Homo sapiens, UniProt P27361); experiment: Protein Mass Modification Assay (intact protein MALDI, 60 min, 10-fold excess of compound); assay type: binding
T2 construct: purchased Millipore 14-439
Method in brief: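 Percent covalent modification comes from the intact-protein MALDI centroid mass shift, treated versus control, divided by compound MW. Before analysis, human Erk1 was exposed to compound at 10-fold excess over protein for 60 min at room temperature.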

T2 sequence (P27361 whole entry): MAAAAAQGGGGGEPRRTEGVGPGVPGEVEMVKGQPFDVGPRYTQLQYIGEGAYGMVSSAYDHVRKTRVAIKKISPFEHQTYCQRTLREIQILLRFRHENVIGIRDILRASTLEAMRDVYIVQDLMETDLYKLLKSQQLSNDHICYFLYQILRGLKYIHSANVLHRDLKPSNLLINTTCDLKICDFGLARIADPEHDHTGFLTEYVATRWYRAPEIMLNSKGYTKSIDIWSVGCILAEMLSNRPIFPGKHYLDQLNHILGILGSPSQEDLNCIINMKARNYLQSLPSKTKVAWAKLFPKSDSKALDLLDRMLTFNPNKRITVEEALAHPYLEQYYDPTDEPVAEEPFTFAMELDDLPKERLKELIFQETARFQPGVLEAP
T1 sequence (P27361 whole entry): as above

SMILES	GI50 [1] [nM]	GI50 [2] [nM]	GI50 [3] [nM]	EC50 [4] [nM]	IC50 (MEK1 activated ERK1) [nM]	EC50 (ERK1/ERK2) [nM]	ERK1 Mass Mod (%) (Erk1)
C=CC(=O)Nc1cc(C)ccc1Nc1nc(N[C@H]2CCCN(C(=O)CO)C2)ncc1C(F)(F)F [Compound I-20, (S)—N-(2-((2-((1-(2-Hydroxyacetyl)piperidin-3-yl)amino)-5-(trifluoromethyl)pyrimidin-4-yl)amino)-5-methylphenyl)acrylamide]	< 100	< 100	< 100	< 100			
C=CC(=O)Nc1ccccc1Nc1nc(N[C@H]2CCCN(C(=O)C=O)C2)ncc1C(F)(F)F [Compound I-52, (S)—N-(2-((2-((1-(2-Oxoacetyl)piperidin-3-yl)amino)-5-(trifluoromethyl)pyrimidin-4-yl)amino)phenyl)acrylamide]	101 to 500	> 1000	101 to 500		101 to 500		
C=C(F)C(=O)Nc1ccccc1Nc1nc(N[C@H]2CCCN(C(C)=O)C2)ncc1C(F)(F)F [Compound I-55, (S)—N-(2-((2-((1-Acetylpiperidin-3-yl)amino)-5-(trifluoromethyl)pyrimidin-4-yl)amino)phenyl)-2-fluoroacrylamide]	< 100	101 to 500	< 100	101 to 500			
C=CC(=O)Nc1ccccc1Nc1nc(Nc2cc(C(N)=O)c(F)cc2C)ncc1C(F)(F)F [Compound I-76, 5-((4-((2-Acrylamidophenyl)amino)-5-(trifluoromethyl)pyrimidin-2-yl)amino)-2-fluoro-4-methylbenzamide]	< 100		101 to 500	501 to 999		< 100	
C=CC(=O)Nc1ccccc1Nc1nc(Nc2cncc(OC)c2)ncc1C(F)(F)F [Compound I-86, N-(2-((2-((5-Methoxypyridin-3-yl)amino)-5-(trifluoromethyl)pyrimidin-4-yl)amino)phenyl)acrylamide]	< 100	< 100	< 100	< 100			E (a mass modification of ≧70%)
C=CC(=O)Nc1ccccc1Nc1nc(N[C@H]2CCCN(C(=O)CO)C2)ncc1Cl [Compound I-123, (S)—N-(2-((5-chloro-2-((1-(2-hydroxyacetyl)piperidin-3-yl)amino)pyrimidin-4-yl)amino)phenyl)acrylamide]	< 100	< 100	< 100	< 100			
C=CC(=O)Nc1cc(C)ccc1Nc1nc(N[C@H]2CCCN(C(C)=O)C2)ncc1Cl [Compound I-139, (S)—N-(2-((2-((1-acetylpiperidin-3-yl)amino)-5-chloropyrimidin-4-yl)amino)-5-methylphenyl)acrylamide]	< 100	< 100	< 100	< 100			E (a mass modification of ≧70%)
C=CC(=O)Nc1ccccc1Nc1nc(Nc2cc(S(N)(=O)=O)ccc2C)ncc1Cl [Compound I-205, N-(2-((5-chloro-2-((2-methyl-5-sulfamoylphenyl)amino)pyrimidin-4-yl)amino)phenyl)acrylamide]	< 100			< 100		< 100	
C=CC(=O)Nc1cc(F)ccc1Nc1nc(Nc2cc(C(N)=O)ccc2C)ncc1Cl [Compound I-206, 3-((4-((2-acrylamido-4-fluorophenyl)amino)-5-chloropyrimidin-2-yl)amino)-4-methylbenzamide]	< 100			101 to 500		< 100	
C=CC(=O)Nc1ccccc1Nc1nc(Nc2ccc(F)cc2C#N)ncc1Cl [Compound I-211, N-(2-((5-chloro-2-((2-cyano-4-fluorophenyl)amino)pyrimidin-4-yl)amino)phenyl)acrylamide]	101 to 500			< 100		< 100	
C=CC(=O)Nc1ccccc1Nc1nc(Nc2cc(C(N)=O)c(F)cc2C)ncc1Cl [Compound I-214, 5-((4-((2-acrylamidophenyl)amino)-5-chloropyrimidin-2-yl)amino)-2-fluoro-4-methylbenzamide]	< 100			< 100		< 100	
C=CC(=O)Nc1cc(OC)ccc1Nc1nc(Nc2cc(C(N)=O)ccc2C)ncc1Cl [Compound I-237, 3-((4-((2-acrylamido-4-methoxyphenyl)amino)-5-chloropyrimidin-2-yl)amino)-4-methylbenzamide]	< 100	501 to 999	< 100	101 to 500			
C=CC(=O)Nc1cc(C)ccc1Nc1nc(Nc2cc(C(C)=O)ccc2C)ncc1Cl [Compound I-239, N-(2-((2-((5-acetyl-2-methylphenyl)amino)-5-chloropyrimidin-4-yl)amino)-5-methylphenyl)acrylamide]	101 to 500	501 to 999	101 to 500		101 to 500		E (key: E: a mass modification of ≧70%; F: a mass modification of 31-69%; G: a mass modification ≦30%)
C=CC(=O)Nc1ccccc1Nc1nc(Nc2cc(OC)ncc2C)ncc1Cl [Compound I-240, N-(2-((5-chloro-2-((2-methoxy-5-methylpyridin-4-yl)amino)pyrimidin-4-yl)amino)phenyl)acrylamide]	< 100	101 to 500	< 100	< 100			
C=CC(=O)Nc1cc(C)ccc1Nc1nc(Nc2cc(OC)ncc2C)ncc1Cl [Compound I-241, N-(2-((5-chloro-2-((2-methoxy-5-methylpyridin-4-yl)amino)pyrimidin-4-yl)amino)-5-methylphenyl)acrylamide]	< 100	101 to 500	101 to 500	< 100			
CCC(=O)Nc1ccccc1Nc1nc(N[C@H]2CCCN(C(=O)CO)C2)ncc1Cl [Compound I-311, (S)—N-(2-((5-chloro-2-((1-(2-hydroxyacetyl)piperidin-3-yl)amino)pyrimidin-4-yl)amino)phenyl)propionamide]	501 to 999	> 1000	> 1000	501 to 999			
C=CC(=O)Nc1ccccc1Nc1nc(Nc2cc(C(N)=O)ccc2C)ncc1Cl [Compound I-319, 3-(4-(2-acrylamidophenylamino)-5-chloropyrimidin-2-ylamino)-4-methylbenzamide]	101 to 500			< 100		< 100	
